ChEMBL document CHEMBL1955753, “SAR-study on a new class of imidazo[1,2-a]pyridine-based inhibitors of 5-lipoxygenase” (Bioorg Med Chem Lett, 2012)
pIC50: −log10 of the molar value.

How the values were obtained:
[1] = target: T1, Polyunsaturated fatty acid 5-lipoxygenase (Homo sapiens, UniProt P09917); test: Inhibition of 5-lipoxygenase in human polymorphonuclear leukocytes assessed as reduction in A23187 and AA-stimulated 5-LO product formation preincubated for 15 mins prior stimulation measured after 10 mins by HPLC analysis; format: cell-based
T1 sequence (P09917 whole entry): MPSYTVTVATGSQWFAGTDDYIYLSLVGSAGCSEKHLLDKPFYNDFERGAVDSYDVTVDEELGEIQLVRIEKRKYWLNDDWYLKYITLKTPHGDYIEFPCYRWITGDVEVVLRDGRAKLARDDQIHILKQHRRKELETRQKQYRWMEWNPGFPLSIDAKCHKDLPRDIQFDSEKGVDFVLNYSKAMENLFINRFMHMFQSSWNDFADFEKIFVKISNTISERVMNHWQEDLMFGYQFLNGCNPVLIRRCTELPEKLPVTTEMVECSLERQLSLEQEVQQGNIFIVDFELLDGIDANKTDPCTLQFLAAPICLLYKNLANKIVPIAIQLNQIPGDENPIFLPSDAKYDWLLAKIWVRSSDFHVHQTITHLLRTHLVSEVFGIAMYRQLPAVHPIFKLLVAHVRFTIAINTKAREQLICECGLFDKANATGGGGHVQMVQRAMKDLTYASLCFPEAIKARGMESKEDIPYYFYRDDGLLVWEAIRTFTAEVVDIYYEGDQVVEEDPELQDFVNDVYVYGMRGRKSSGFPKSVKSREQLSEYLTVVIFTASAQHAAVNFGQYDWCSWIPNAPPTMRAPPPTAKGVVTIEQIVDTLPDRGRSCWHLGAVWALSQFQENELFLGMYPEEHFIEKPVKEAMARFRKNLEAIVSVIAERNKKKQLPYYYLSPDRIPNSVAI

[2] = target: T1, Polyunsaturated fatty acid 5-lipoxygenase; test: Inhibition of 5-lipoxygenase in S100 cell free fraction of human polymorphonuclear leukocytes assessed as reduction in 5-LO product formation preincubated for 15 mins measured after 10 mins by HPLC analysis; format: cell-based

| SMILES | pIC50 [1] | pIC50 [2] |
| --- | --- | --- |
| Cc1ccc2nc(-c3ccncc3)c(NC3CCCCC3)n2c1 | 5.14 | 5.11 |
| CN(C)c1ccc(-c2nc3ccc(Cl)cc3n2CC2CCCCC2)cc1 | 6.30 | < 5.00 |
| Cc1ccc2nc(-c3ccc(N(C)C)cc3)c(NC3CCCCC3)n2c1 | 6.22 | – |
| Cc1ccc2nc(-c3ccc([N+](=O)[O-])cc3)c(NC3CCCCC3)n2c1 | 5.82 | < 4.52 |
| CCOc1ccc2[nH]c(=O)c(-c3nc4ccc(C)cn4c3NC3CCCCC3)cc2c1 | 5.74 | 4.67 |

Continued by rising pIC50 [1], values first:

| pIC50 [1] | pIC50 [2] | SMILES |
| --- | --- | --- |
| 5.92 | 5.24 | Clc1ccc2nc(-c3ccc(N4CCOCC4)cc3)n(CC3CCCCC3)c2c1 |
| 6.05 | – | Cc1ccc(-c2nc3cc(C)ccn3c2NC2CCCC2)cc1 |
